Measurements: patent publication US12391698B2, “Substituted piperidines and piperazines and methods for the treatment of CNS disorders” (SUVEN LIFE SCIENCES LIMITED, priority 2022, dated 2025)
Where a name gives a salt, the structure may show the parent alone.

What was measured:
[1] = target: T1, cloned human 5-HT1A receptor (Homo sapiens, UniProt P08908); test: Determination of Ki at 5-HT1A receptor (radioligand binding, [3H]-8-Hydroxy DPAT); conditions: HEK293-EBNA recombinant cells; [3H]-8-Hydroxy DPAT 0.8 nM; read-out: Ki h5-HT1A
T1 construct: expressed in transfected cells; host or cells: HEK293-EBNA
T1 sequence (P08908 1-422): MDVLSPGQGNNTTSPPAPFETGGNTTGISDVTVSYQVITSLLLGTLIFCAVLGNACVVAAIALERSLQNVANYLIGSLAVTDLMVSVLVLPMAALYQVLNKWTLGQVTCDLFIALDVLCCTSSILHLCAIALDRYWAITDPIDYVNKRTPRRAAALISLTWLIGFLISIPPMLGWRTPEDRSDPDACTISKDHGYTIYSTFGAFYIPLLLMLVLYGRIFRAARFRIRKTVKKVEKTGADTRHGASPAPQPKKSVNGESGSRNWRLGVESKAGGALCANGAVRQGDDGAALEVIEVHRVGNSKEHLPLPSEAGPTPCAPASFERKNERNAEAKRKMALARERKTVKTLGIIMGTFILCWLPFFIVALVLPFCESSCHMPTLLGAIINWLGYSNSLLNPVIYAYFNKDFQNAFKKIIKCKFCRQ
Method: (§1) Compounds were tested according to the following procedure.
(§2) • Receptor source: Recombinant mammalian cells (HEK293-EBNA) • Radioligand: [^3H]-8-Hydroxy DPAT (200 Ci/mmol) • Final ligand concentration: 0.8 nM • Non-specific determinant: 0.1 mM U92016A • Reference compound: U92016A • Positive control: U92016A Incubation Conditions:
(§3) Reactions were carried out in buffer with pH 7.4 containing 50 mM Tris-HCl, 0.5 mM EDTA, 10 mM MgSO4, 0.1% Ascorbic acid for 2 h at r.t. The reaction was terminated by rapid vacuum filtration onto the glass fiber filters. Radioactivity trapped onto the filters was determined and compared to the control values in order to ascertain any interactions of the test compound(s) with cloned human 5-HT1A receptor binding site.

[2] = target: T2, cloned human 5-HT2A receptor (Homo sapiens, UniProt P28223); test: Determination of Ki at 5-HT2A receptor (radioligand binding, [3H]-Ketanserine); conditions: CHO-K1 recombinant cells; [3H]-Ketanserine 1.25 nM; read-out: Ki h5-HT2A
T2 construct: expressed in transfected cells; host or cells: CHO-K1
Method: as §1
as §2, with “(CHO-K1)” for “(HEK293-EBNA)”, “[^3H]-Ketanserine (41.9” for “[^3H]-8-Hydroxy DPAT (200”, “1.25” for “0.8”, “1-Napthyl piperazine (1-NP)” for “U92016A”
as §3, with “4” for “0.5”, “CaCl2),” for “EDTA, 10 mM MgSO4,”, “1” for “2”, “5-HT2A” for “5-HT1A”

[3] = target: cloned human SERT receptor (Homo sapiens, UniProt P31645); test: Determination of Ki at SERT receptor (SPA binding, [3H]-Citalopram); conditions: HEK293 recombinant cells; [3H]-Citalopram 2 nM; read-out: Ki hSERT
Method: as §1
• Receptor source: Recombinant mammalian cells (HEK293) • Radioligand: [^3H]-Citalopram (80.8 Ci/mmol) • Final ligand concentration: 2 nM • Non-specific determinant: 0.1 mM Venlafaxine • Reference compound: Venlafaxine • Positive control: Venlafaxine Incubation Conditions:
Reactions were carried out in buffer with pH 7.4 containing 50 mM Tris-HCl, 150 mM NaCl, 5 mM KCl and scintillation proximity assay (SPA) beads (0.1 mg/well) for 3 h at r.t. Radioactivity proximal to SPA beads was determined by scintillation proximity assay and compared to the control values in order to ascertain any interactions of the test compound(s) with cloned human SERT receptor binding site.
Reference: Journal of Pharmacology and Experimental Therapeutics, 1987, 242 (1), 364-371.

[4] = target: T3, hD2S (cloned human dopamine D2S receptor) (Homo sapiens, UniProt P14416); test: Determination of Ki at D2S receptor (radioligand binding, [3H]-Raclopride); conditions: CHO-K1 recombinant cells; [3H]-Raclopride 4 nM; read-out: Ki hD2S
T3 construct: expressed in transfected cells; host or cells: CHO-K1
Method: as §1
• Receptor source: Recombinant mammalian cells (CHO-K1) • Radioligand: [^3H]-Raclopride (80.8 Ci/mmol) • Final ligand concentration: 4 nM • Non-specific determinant: 0.1 mM Haloperidol • Reference compound: Haloperidol • Positive control: Haloperidol Incubation Conditions:
as §3, with “120” for “0.5”, “NaCl, 5” for “EDTA, 10”, “KCl, 5 mM MgCl2, 1 mM EDTA” for “MgSO4, 0.1% Ascorbic acid”, “dopamine […]” for “5-HT1A”

T3 sequence (P14416 1-414 isoform P14416-2): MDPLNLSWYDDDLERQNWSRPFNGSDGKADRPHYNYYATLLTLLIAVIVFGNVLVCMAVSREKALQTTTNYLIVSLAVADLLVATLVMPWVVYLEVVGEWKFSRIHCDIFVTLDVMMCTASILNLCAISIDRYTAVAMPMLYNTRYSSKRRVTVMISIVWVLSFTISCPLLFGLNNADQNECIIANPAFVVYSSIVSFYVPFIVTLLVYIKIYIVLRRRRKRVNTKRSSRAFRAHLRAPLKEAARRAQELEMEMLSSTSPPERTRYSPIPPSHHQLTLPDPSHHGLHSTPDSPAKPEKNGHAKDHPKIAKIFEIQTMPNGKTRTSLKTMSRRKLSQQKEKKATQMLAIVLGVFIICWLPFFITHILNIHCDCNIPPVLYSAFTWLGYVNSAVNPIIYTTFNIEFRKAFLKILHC
T2 sequence (P28223 whole entry): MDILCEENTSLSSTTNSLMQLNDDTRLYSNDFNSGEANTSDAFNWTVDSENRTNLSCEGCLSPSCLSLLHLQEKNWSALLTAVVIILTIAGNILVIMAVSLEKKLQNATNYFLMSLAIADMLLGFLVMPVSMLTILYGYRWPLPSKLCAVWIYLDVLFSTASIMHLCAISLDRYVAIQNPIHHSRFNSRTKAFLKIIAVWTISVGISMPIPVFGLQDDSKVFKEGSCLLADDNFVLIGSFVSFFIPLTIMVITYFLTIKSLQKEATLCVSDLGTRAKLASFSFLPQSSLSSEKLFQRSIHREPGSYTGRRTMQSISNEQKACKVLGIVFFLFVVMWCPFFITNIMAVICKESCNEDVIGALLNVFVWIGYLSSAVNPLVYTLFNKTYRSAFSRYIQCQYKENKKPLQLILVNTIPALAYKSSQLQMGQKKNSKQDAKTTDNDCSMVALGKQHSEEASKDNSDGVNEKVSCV
cloned human SERT receptor, sequence (P31645 whole entry): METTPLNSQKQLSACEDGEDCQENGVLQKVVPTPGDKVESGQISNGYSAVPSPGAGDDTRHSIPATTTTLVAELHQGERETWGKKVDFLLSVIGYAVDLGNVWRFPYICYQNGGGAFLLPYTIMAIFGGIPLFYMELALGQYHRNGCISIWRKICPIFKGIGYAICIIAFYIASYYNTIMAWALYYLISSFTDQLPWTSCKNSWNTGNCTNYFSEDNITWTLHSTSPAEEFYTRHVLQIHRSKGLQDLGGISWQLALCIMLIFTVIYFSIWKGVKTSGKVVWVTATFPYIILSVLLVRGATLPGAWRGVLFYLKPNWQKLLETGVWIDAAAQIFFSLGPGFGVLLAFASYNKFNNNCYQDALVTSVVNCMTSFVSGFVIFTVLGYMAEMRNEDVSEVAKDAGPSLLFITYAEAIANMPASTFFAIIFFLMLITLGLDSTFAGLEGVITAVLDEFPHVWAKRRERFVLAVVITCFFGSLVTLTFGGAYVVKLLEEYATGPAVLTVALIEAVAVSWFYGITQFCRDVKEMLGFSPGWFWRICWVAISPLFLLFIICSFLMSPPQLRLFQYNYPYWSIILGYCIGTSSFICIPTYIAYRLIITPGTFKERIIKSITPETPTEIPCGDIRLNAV

Row | SMILES | Ki [1] [nM] | Ki [2] [nM] | Ki [3] [nM] | Ki [4] [nM]
1 | O=C1C[C@@H]2CCCN2C(=O)N1CCCCN1CCC(c2c[nH]c3ccc(F)cc23)CC1 [Example 7, 2-{4-[4-(5-Fluoro-1H-indol-3-yl)-piperidin-1-yl]-butyl}-tetrahydro-pyrrolo[1,2-c]pyrimidine-1,3-dione oxalate] | 1.8 | 49.9 | 38.5 | 4.5
2 | O=C1C[C@@H]2CCCCN2C(=O)N1CCCCN1CCN(c2nsc3ccccc23)CC1 [Example 12, 2-[4-(4-Benzo[d]isothiazol-3-yl-piperazin-1-yl)-butyl]-hexahydro-pyrido[1,2-c]pyrimidine-1,3-dione] | 0.1 | 0.6 | 181 | 0.6
3 | O=C1C[C@@H]2CCCCN2C(=O)N1CCCCN1CCC(c2noc3cc(F)ccc23)CC1 [Example 13, 2-{4-[4-(6-Fluoro-benzo[d]isoxazol-3-yl)-piperidin-1-yl]-butyl}-hexahydro-pyrido[1,2-c]pyrimidine-1,3-dione] | 14.9 | 2.5 | 1630 | 2.5
4 | O=C1C[C@@H]2CCCCN2C(=O)N1CCCCN1CCC(c2c[nH]c3ccc(F)cc23)CC1 [Example 15, 2-{4-[4-(5-Fluoro-1H-indol-3-yl)-piperidin-1-yl]-butyl}-hexahydro-pyrido[1,2-c]pyrimidine-1,3-dione] | 2.2 | 53.6 | 26.9 | 2.9
5 | COc1ccc2[nH]cc(C3CCN(CCCCN4C(=O)C[C@@H]5CCCCN5C4=O)CC3)c2c1 [Example 16, 2-{4-[4-(5-Methoxy-1H-indol-3-yl)-piperidin-1-yl]-butyl}-hexahydro-pyrido[1,2-c]pyrimidine-1,3-dione] | 0.6 | 1210 | 427 | 59.1
6 | O=C(OCc1ccccc1)N1CCN2C(=O)N(CCCCN3CCN(c4nsc5ccccc45)CC3)C(=O)C[C@@H]2C1 [Example 19, 7-[4-(4-Benzo[d]isothiazol-3-yl-piperazin-1-yl)-butyl]-6,8-dioxo-octahydro-pyrazino[1,2-c]pyrimidine-2-carboxylic acid benzyl ester] | 1.1 | 0.8 | 126 | 3.2
7 | O=C(OCc1ccccc1)N1CCN2C(=O)N(CCCCN3CCN(c4nsc5ccccc45)CC3)C(=O)C[C@@H]2C1 [Example 20, 7-[4-(4-Benzo[d]isothiazol-3-yl-piperazin-1-yl)-butyl]-6,8-dioxo-octahydro-pyrazino[1,2-c]pyrimidine-2-carboxylic acid benzyl ester fumarate] | 1.3 | 1.1 | 148 | 2.7
8 | O=C(OCc1ccccc1)N1CCN2C(=O)N(CCCCN3CCC(c4noc5cc(F)ccc45)CC3)C(=O)CC2C1 (centres unmarked) [Example 22, 7-{4-[4-(6-Fluoro-benzo[d]isoxazol-3-yl)-piperidin-1-yl]-butyl}-6,8-dioxo-octahydro-pyrazino[1,2-c]pyrimidine-2-carboxylic acid benzyl ester fumarate] | 84.1 | 1.5 | 279 | 2.5
9 | O=C1C[C@H]2COCCN2C(=O)N1C[C@H]1CCCC[C@H]1CN1CCN(c2nsc3ccccc23)CC1 [Example 30, 7-[2-(4-Benzo[d]isothiazol-3-yl-piperazin-1-ylmethyl)-cyclohexylmethyl]-tetrahydro-pyrimido[6,1-c][1,4]oxazine-6,8-dione] |  | 8.5 | 9350 | 0.6
10 | CC(=O)N1CCN2C(=O)N(CCCCN3CCN(c4nsc5ccccc45)CC3)C(=O)C[C@@H]2C1 [Example 38, 2-Acetyl-7-[4-(4-benzo[d]isothiazol-3-yl-piperazin-1-yl)-butyl]-hexahydro-pyrazino[1,2-c]pyrimidine-6,8-dione fumarate] |  | 2.2 | 953 | 4.5
